From the METLIN SMRT retention time set (Domingo-Almenara et al. 2019)

Test: gradient 5% acetonitrile 3 min, to 50% in 2 min, to 85% in 15 min, held 3 min, 100 µL/min
Conditions: column: Zorbax Extend-C18 2.1 x 50 mm; eluents: water / acetonitrile, 0.1% formic acid
Outline: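 Data were gathered over 3 months by HPLC coupled to a quadrupole time-of-flight mass spectrometer, operated in positive and negative ionization mode. Mixtures of ~100 pure standards ran on a Zorbax Extend-C18 column (2.1 × 50 mm, 1.8 μm) at 100 μL/min, with water and acetonitrile each containing 0.1% formic acid and dead and dwell volumes of 40 μL and 900 μL. Retention time was read from adduct peaks picked by computer and checked manually.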

Structure (SMILES)	RP-LC retention time [s]
Cc1ccc(S(=O)(=O)n2nc(OC(=O)c3ccc(Cl)cc3Cl)cc2N)cc1	1030
CCOc1ccc(-c2cc3c(=O)n(Cc4nc(-c5ccc(SC)cc5)no4)ncn3n2)cc1	1210
Cc1c(-c2noc(-c3ccc(F)c(F)c3)n2)nnn1Cc1ccccc1	1090
Cc1nn(-c2ccccc2)c(C)c1N1CCN(S(=O)(=O)c2c(C)noc2C)CC1	952
CCCN(C)C[C@@H]1CC(F)(F)CN1C1CCN(S(=O)(=O)c2ccc(C)cc2C)CC1	788
COC1CCC12CCN(C(=O)c1ccc(Cc3c(C)noc3C)o1)CC2 (stereo not drawn)	800
COCCNC(=O)NCC1(c2ccccc2)CCOCC1	615
Cc1cc(C)n(CCNC(=O)CN2CCN(c3ccc4c(c3)OCCO4)C2=O)n1	616
CCOc1ccccc1NC(=O)C1CCCN(S(=O)(=O)c2cc(-c3noc(C)n3)cs2)C1 (stereo not drawn)	1060
Cc1ccc(C)c(NC(=O)Cc2csc(C)n2)c1	788
Cc1ccc2c(n1)nn1c(C)cc(C)nc21	557
Cc1nc(CCNC(=O)Cc2ccsc2)no1	640
Cc1c(F)cccc1NC(=O)N1CCC(c2cc(=O)n3nccc3n2C)CC1	690
COc1ccc(N2CCN(C(=O)C3CCCN(c4ccc(-c5ccccc5)nn4)C3)CC2)cc1 (stereo not drawn)	711
CCN1CCN(C(=O)C2CCCN(c3nnc4ccc(C(F)(F)F)cn34)C2)CC1 (stereo not drawn)	567
CCCCOc1ccc(NC(=O)c2oc3cc(C)ccc3c2C)c2cccnc12	946
COc1ccc(-c2csc3c(=O)n(Cc4cccc(F)c4)cnc23)cc1	1050
Nc1cc(C(F)(F)F)c(-c2cc(N3CCOCC3)nc(N3CCOCC3)n2)cn1	650
O=C(NC1CCN(Cc2ccccc2)CC1)c1csc(-c2ccc(N3CCCC3)nc2)n1	565
CCc1ccc(CN2C(=O)CN(S(C)(=O)=O)CC2(C)C(=O)NCc2ccccc2)cc1 (stereo not drawn)	868
CCCNC(=O)C1CCCN(c2ccc(SCC(=O)Nc3ccc(Cl)cc3)nn2)C1 (stereo not drawn)	712
COc1ccccc1-c1nc(-c2ccc3c(c2)nnn3CCN2CCCCC2)no1	663

Structure (SMILES)	RP-LC retention time [s]
CN(C)S(=O)(=O)c1ccc(C(=O)OCc2cc(-c3ccc(Cl)cc3)on2)cc1	1090
COc1ccc(NC(=O)c2[nH]c3cc(C)sc3c2CN2CCOCC2)cc1	655
Brc1ccc(OCc2nnc3sc(-c4ccncc4)nn23)cc1	811
Cc1cccc(N2CC(C(=O)N(C)C)CC2=O)c1 (stereo not drawn)	660
COc1ccc(-c2noc(-c3ccc(NCCCN4CCCC4)nn3)n2)cc1	642
CNC(=O)c1cccc(Nc2c(-c3ccc(SC)cc3)nc3cnccn23)c1	692
Cc1nc(N2CCN(c3ccccn3)CC2)nc2c1C(=O)CC(c1cccc(Cl)c1)C2 (stereo not drawn)	838
O=[N+]([O-])c1ccc(-c2nc(N3CCCCCC3)c3ccccc3n2)cc1	820
Cc1cc(N(C)C)nc(NCCNC(=O)C2CCCC2)n1	545
COC(=O)CS(=O)c1ccc(C(F)(F)F)cc1[N+](=O)[O-] (stereo not drawn)	730
Cc1ccc2c(Nc3ccc4c(c3)OCCO4)c(C(=O)N3CCCCC3C)cnc2n1 (stereo not drawn)	623
O=C(NC1CC1)C1CCN(Cc2cc3ccccc3n2Cc2ccc(Cl)cc2)CC1	717
O=C(NCCC1CCN(C(=O)Nc2cc(F)ccc2F)CC1)C1CCCC1	769
Cc1oc(-c2[nH]ncc2C(=O)N(C)C)cc1S(=O)(=O)NCc1ccc(Cl)cc1	725
O=C(NCC1CCCCC1)C1CCN(c2cncnc2N2CCOCC2)CC1	644
O=C(c1cc2ccc3cccnc3c2[nH]1)N1CCN(c2ccccn2)CC1	596
Cc1ccc(Sc2nccnc2N2CCCC(C(=O)Nc3ccc(F)cc3C)C2)cc1 (stereo not drawn)	1140
CS(=O)(=O)Nc1ccc(-c2noc(CNC(=O)Cc3ccc(Cl)cc3)n2)cc1	788
COc1ccc(OC)c(S(=O)(=O)N2CCC(n3cnc4ccc(C)cc4c3=O)CC2)c1	881
Cc1cc(NCCCC(=O)NC2CC2)n2nc(-c3cccnc3)nc2n1	577
COc1ccc(-c2csc(NC(=O)COc3ccccc3Cl)n2)cc1Br	1220
O=C(NCc1ccccc1Cl)c1ccc2c(c1)CCN2C(=O)C1CC1	856

Structure (SMILES)	RP-LC retention time [s]
CN(C)CCNC(=O)CN1C(=O)C2CCCCN2c2ccc(C(=O)N3CCCCC3)cc21 (stereo not drawn)	619
Cc1cc(N2CCN(C(=O)Nc3ccccc3F)CC2)nc(N2CCCC2)n1	626
COC(=O)c1c(C)[nH]c(C(=O)N2CCC(CC(=O)NCCc3c[nH]c4ccccc34)CC2)c1C	722
CCN(CC)S(=O)(=O)c1ccc(NC(=O)N2CCC(C(=O)Nc3ccc(Cl)cc3)CC2)s1	931
Cn1nc(-c2nnc(-c3ccccc3)o2)c2c1CCN(S(=O)(=O)c1ccc3c(c1)CCCC3)C2	1110
CCOc1ccc(NCC(O)Cn2c3ccccc3n3c(=O)cc(C)c(C#N)c23)cc1 (stereo not drawn)	668
CCNc1cc(N2CCCC(CCC(=O)Nc3ccccc3)C2)ncn1 (stereo not drawn)	669
Cc1nn(-c2ccc(F)cc2)c2c1c(=O)c(C(=O)NCc1cccs1)cn2C	808
CCNS(=O)(=O)c1cccnc1Nc1ccccc1F	948
CCc1nc(-c2csc(S(=O)(=O)N3CCCC(C(=O)Nc4nccs4)C3)c2)no1 (stereo not drawn)	884
Cc1cc(C)n2c(Nc3ccc(Cl)cc3)c(-c3ccc(Cl)cc3)nc2n1	886
Cn1cc(-c2ccncc2)cc1C(=O)NCc1cccc(Br)c1	672
CC1=NS(=O)(=O)N(C)C=C1C(=O)OCc1cccc(C)c1	967
COc1ccc(OC)c(NC(=O)N2CCc3nc[nH]c3C2)c1	580
O=c1cc(-c2ccc(O)cc2)oc2cc(O[C@@H]3O[C@H](CO)[C@H](O)[C@H](O)[C@H]3O)cc(O)c12	746
Cc1cn(C)c(CC(=O)NC2CCCCCC2)c1C(=O)O	765
CCOC(=O)c1c(C)oc2nc(C)nc(NCCN3CCN(c4ccc(OC)cc4)CC3)c12	732
COC(=O)CCc1sc(Nc2c(C)n[nH]c2C)nc1-c1ccc(OC)cc1	664
Cc1ccc2nc(C(=O)NCc3ccc(N(C)C)cc3)cn2c1	565
CCOC(=O)c1cnc2nc(C)ccc2c1Nc1cc(OC)ccc1OC	709
O=C(Cn1cnc(-c2cccs2)cc1=O)NCCn1nc(-c2cccs2)ccc1=O	666
CCOc1ccc(NS(=O)(=O)c2cc(C(=O)N3CCN(c4ccc(C)cc4C)CC3)n[nH]2)cc1	1030

Structure (SMILES)	RP-LC retention time [s]
O=C(C1CCCN(S(=O)(=O)c2ccc(-c3ccn[nH]3)o2)C1)N1CCN(c2ccccn2)CC1 (stereo not drawn)	607
O=C(Cn1nc2n(c1=O)CCCCC2)Nc1ccc(F)cc1	666
Cc1nnc2c(=O)n(CC(=O)NCc3ccc(F)c(Cl)c3)c3cccnc3n12	723
COc1ncccc1C(=O)N1CCC(C(=O)Nc2cc(C)on2)CC1	622
CC(C)c1ccc(NC(=O)C2CCCN(c3nc4ccccc4nc3C(F)(F)F)C2)cc1 (stereo not drawn)	957
CCOc1ccc(-c2ccc(=O)n(Cc3nc(-c4cccc(OCC)c4)no3)n2)cc1	1150
COc1ccc(NC(=O)Nc2nccn(-c3cccc(F)c3)c2=O)cc1OC	798
CNC(=O)c1sc2nc(-c3ccc(OC)cc3)c(NCCOC)n2c1C	656
CCN1C(=O)c2cc(S(=O)(=O)NCc3ccccc3F)ccc2Oc2cccnc21	1010
O=C(c1cn2ccccc2n1)N1CCN(c2cccc(Cl)c2)CC1	718
COc1ccc(Cl)cc1NC(=O)N1CCCC1c1nc(-c2ccc(F)cc2F)no1 (stereo not drawn)	1120
O=C(CCc1cccc2[nH]ccc12)NCc1ccc(N2CCCCC2)cc1	612
O=C(NC1CCN(c2cc(-c3cccs3)[nH]n2)C1)c1ccncc1 (stereo not drawn)	612
C=CCn1c(=O)c2ccccc2n(Cc2nc(-c3ccc(Cl)cc3)no2)c1=O	1130
COc1cccc(N2CCN(c3ccnc(SCC(=O)Nc4ccc5c(c4)OCO5)n3)CC2)c1	728
Cc1nc2cccnc2n1C1CCN(C(=O)Nc2ccccc2Cl)CC1	635
COc1ccc2c(c1)C1(CCN(C(=O)c3ccccc3F)C1)C(=O)N2C (stereo not drawn)	752
COc1ccc(CC(=O)Nc2cnn(-c3ncc(N(C)C)cn3)c2)c(Cl)c1	753
CCc1ccc(C(=O)c2cnc3cc4c(cc3c2N2CCN(CC)CC2)OCO4)cc1	608
Cc1oc2ccn(Cc3cccc(F)c3)c(=O)c2c1C(=O)NCc1cc(F)cc(F)c1	1130
COc1cn(CC(=O)Nc2cccc([N+](=O)[O-])c2)c(CN2CCC(C)CC2)cc1=O	567
Cc1c(Cl)cccc1NC(=O)N1CCc2nc(-c3ccc(F)cc3)ncc2C1	996
